The text below walks through data of US11141494B2, “Development of neurokinin-1 receptor-binding agent delivery conjugates” (PURDUE RESEARCH FOUNDATION, priority 2014, dated 2021).

Data set [1] has as its system NKIR-transduced xenografts (HEK 293-NKIR) versus non-transduced xenografts (HEK 293-WT). Nature of the data set: PET imaging of 64Cu-labeled NK1R ligand conjugate in tumor xenograft mice (ROI activity, % ID/mL). It counts as in vivo, athymic nude mice. The conditions noted are these: intravenous. On the procedure: A NK-1 receptor-binding radionuclide delivery conjugate was prepared that contained NK1RL, a PEG2 linker, and ^64Cu-labeled chelator (radiochemical purity: 99%) with Specific Activity (SA) of 3.7 MBq/μg. Four NKIR-transduced xenografts (HEK 293-NKIR) were prepared, as well as four non-transduced xenografts (HEK 293-WT) using athymic nude mice. Doses of 140-160 uCi (˜[…]) of ligand per mouse were intravenously administered, and the models were imaged at 1, 4 and 20 hours post-injection using PET. The images were analyzed in a region of interest (ROI) around the tumor xenograft activity, and percentage injected dose per mL (% ID/mL) values were calculated from the mean activity in the ROIs. FIG. 8A is a plot showing ROI activity for the NK1R-transduced and non-transduced xenografts. […] FIG. 8B is a plot showing the ^64Cu—NK1R ligand uptake ratio between the NK1R-transduced and non-transduced xenografts in various areas at 20 hours post-injection.

For data set [2] the following is noted: in terms of human activity and metabolism; cited from earlier work.

On to `O=C(O)CN1CCN(CC(=O)O)CCN(CC(=O)NCCOCCOCCNC(=O)CN2CCC[C@H](OCc3cc(C(F)(F)F)cc(C(F)(F)F)c3)[C@@H]2c2ccccc2)CC1` [NK1RL-PEG2-NOTA-^64Cu conjugate, metal not drawn], for which the “accumulation in NK1R-transduced versus non-transduced xenografts (ROI activity)” value in data set [1] (PET at 1, 4 and 20 hours post-injection, HEK 293-NKIR and HEK 293-WT xenografts) is “specifically accumulated in NK1R-transduced xenografts, but not in non-transduced murine model xenografts”. For the same compound, in data set [1] (PET imaged at 1, 4 and 20 hours post-injection), the “time post-injection at which the ratio between NK1R-transduced and non-transduced xenografts was highest” value is 20 h.

As for `[99Tc]` [^99mTc, technetium-99m], in data set [2], the biological half-life was 1 day.
